Two compounds from patent US20120238606A1, “[…] AMINE SALTS, PREPARATION METHOD AND USE THEREOF” (JIANGSU HANS PHA[…] CO., LTD., priority 2009, published 2012) can be followed below.

The subject of test [1] is angiotensin II-induced hypertensive rats. Briefly: Effect on blood pressure in angiotensin II-induced hypertensive rats. The class given is in vivo, Sprague-Dawley rats. Conditions: male SD rats, single equimolar dose ig (0.11 mg/kg example 1; 0.123 mg/kg example 2) in 0.5% methyl cellulose, AII 100 ng/kg iv again after 24 hours, Mean±S.E. How it is done: The effect of compounds of the present invention on blood pressure in angiotensin II-induced hypertensive rats was investigated.
Male Sprague-Dawley rats (9-11 weeks old, CLEA Japan, Inc.) were anesthetized by pentobarbital solution (50 mg/kg, ip.) and prepared for surgery. The surgery procedure was as follows: made an incision through the skin on the abdomen and abdominal wall, separated the aorta and vein from the vena cava, occluded blood flow to allow introduction of a polyethylene (PE) tube filled with normal saline containing heparin (200 U/mL) into the vessel, passed the PE tube through the subcutaneous slits, and fixed the PE tube at the back of the neck. After recovery period, the rats were induced hypertension by intravenous administration of 100 ng/kg angiotensin II (AII). The PE tube was combined with a pressure transducer coupled to a blood pressure monitor amplifier (2238, NEC San-ei Instruments). The animals were enrolled based on average systolic blood pressure over 24 hours. All the animals with average systolic blood pressure less than 140 mmHg were excluded from this study, and the others were divided into 2 groups. […] The rats were injected intravenously AII again after 24 hours, and their blood pressure were measured by the monitor. The rat blood pressure inhibition ratios after dosing were calculated. […] The results were expressed as Mean±S.E. (Table 1).

Test [2] deals with angiotensin II-induced hypertensive dogs. Briefly: Effect on blood pressure in angiotensin II-induced hypertensive dogs. The class given is in vivo. As to conditions: male Beagle dogs, equimolar dose ig (1.10 mg/kg example 1; 1.23 mg/kg example 2) in 0.5% methyl cellulose, mean±S.E. How it is done: The effect of compounds of the present invention on blood pressure in angiotensin II-induced hypertensive dogs was investigated.
In this study, male Beagle dogs (weighting 12.0-14.7 kg, KITAYAMA LABES, CO., LTD.) were employed. The dogs were anesthetized by pentobarbital solution (50 mg/kg, ip) and prepared for surgery. The surgery procedure was as follows: made an endotracheal intubation for controlling the breathing, shaved the regions of femoral and back of the neck, fixed the dogs at the dorsal position, used isodine solution (MEIJI SEIKA KAISHA, LTD.) to sterilize the skins, made an incision through the skin on the right femoral region, separated the arteria femoralis, occluded blood flow to allow introduction of a mirror catheter (5 F, MILLER INDUSTRIES) and polyurethane tube into the aorta and vein, respectively, passed the tubes through the subcutaneous slits and fixed the tubes at the back, closed the wall and sutured the skin, and injected intramuscularly the penicillin G potassium (MEIJI SEIKA KAISHA, LTD., 40,000 units) for sterilization. For post-operative care, animals were administered 40,000 units penicillin G potassium intramuscularly once daily for 3 days. There was a recovery period before study ongoing.
The animals were singly housed in a small metabolic cage and fasted during the experiment. The mirror catheter was linked to a transducer unit (MILLER INDUSTRIES). Through a DC amplifier (N4777, NEC San-ei Instruments) and a blood pressure monitor amplifier (N4441, NEC San-ei Instruments), the blood pressure was recorded by a recorder (RECTI-HORIZ 8 K, NEC San-Ei Instruments). In order to establish a hypertension model, the dogs were injected intravenously 100 ng/kg AII for 3 or 4 times before dosing test articles. The test articles were an equal molar dose suspended in 0.5% methyl cellulose, and the dosing volume for all animals was 2 mL/kg. After administration, the blood pressure was measured by the monitor. The dog blood pressure inhibition ratios after dosing were calculated, and the results were expressed as mean±S.E. (Table 2).

Each structure is given as a SMILES string.

With `CCOc1nc2cccc(C(=O)O)c2n1Cc1ccc(-c2ccccc2-c2noc(=O)[nH]2)cc1.NCCO` [Product of example 1, Azilsartan ethanolamine], in test [1], the “Inhibition ratios (%) (blood pressure inhibition ratio after dosing)” value is 57.4 ± 6.7%. In test [2], the “Inhibition ratios (%) 10 hr post dosing” value is given as 82.7 ± 7.3% and the “Inhibition ratios (%) 24 hr post dosing” value is given as 61.6 ± 4.8%.
Taken in the same sequence, the figures for `CCOc1nc2cccc(C(=O)O)c2n1Cc1ccc(-c2ccccc2-c2noc(=O)[nH]2)cc1.C[N+](C)(C)CCO` [Product of example 2, Azilsartan choline] were 54.3 ± 5.1%, 79.3 ± 8.6% and 59.5 ± 6.3%.
